Laboratory results published in ChEMBL document CHEMBL1201862, “PubChem BioAssay data set” (2004).
Active and inactive are the calls of the source.

Columns and labels:
[1] = NIH-3T3 fibroblast cytotoxicity, dose response, cytotoxicity control, cell-based, fluorescence, Alamar Blue, secondary assay (AID 2327); assay type: functional;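 also: NIH-3T3 mouse fibroblasts cultured with fluconazole at 8 µg/mL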
[2] = fluconazole-exposed Candida albicans growth modulators – fluorescence, retest, confirmation (AID 2467); assay type: functional, cell-based
[3] = Luminescence Cell-Based Dose Response HTS to Identify Activators of Luciferase Translation or Activity in H4 […] Cells. [Related pubchem assays: 1829 (Project Summary), 1814 (Primary HTS)]; assay type: functional
[4] = test system: H4; experiment: Luminescence Cell-Based Dose Response HTS to Identify Activators of 5'UTR Stem-Loop Driven Prion Protein mRNA Translation in H4 Neuroglioblastoma Cells. [Related pubchem assays: 1829 (Project Summary), 1814 (Primary HTS)]; assay type: functional; conditions: Homo sapiens
[5] = Luminescence Cell-Based Dose Confirmation HTS to Identify Activators of 5'UTR Stem-Loop Driven Alpha-Synuclein mRNA Translation in H4 Neuroglioblastoma Cells. [Related pubchem assays: 1829 (Project Summary), 1814 (Primary HTS)]; assay type: functional
[6] = microbe, parasite or virus in culture; assay type: functional; conditions: Mycobacterium tuberculosis
[7] = P. falciparum Dd2 growth inhibitors, dose response, SYBR Green, cherry-picked samples (AID 1159567); assay type: functional, cell-based
[8] = biological target: Paired box protein Pax-8 (Homo sapiens, UniProt Q06710); experiment: PAX8 transcriptional activity inhibition in RMG-I – RMG-I cells, luciferase, cherry-pick, dose response (AID 687027); assay type: functional, cell-based;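 also: luciferase reporter driven by Pax8 target thyroperoxidase promoter measured by SteadyGlo luminescence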
[9] = loss of viability in HepG2 cells – cell-based, CellTiter-Glo, cherry-picked, cytotoxicity control for Shn3 inhibitor project, dose response (AID 624134); assay type: functional
[10] = reduction of Shn3 3'UTR-driven luciferase in osteoblasts – cell-based, Clone20 osteoblasts, firefly luciferase, cherry-picked, dose response (AID 624132); assay type: functional;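 also: firefly luciferase luminescence from reporter carrying the Shn3 3'UTR in osteoblasts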
[11] = non-specific 3'UTR reporter inhibition in Clone20-Shn3RL – cell-based, Renilla luciferase, cherry-picked, counter-screen for Shn3 inhibitor project, dose response (AID 624133); assay type: functional
[12] = viability of uninfected HEp-2 cells – cell-based, HTS, cytotoxicity control for RSV inhibitor project, dose response (AID 2410); assay type: functional; conditions: human respiratory syncytial virus
[13] = Luminescence Cell-Based Dose Retest to Confirm Inhibitors of Cancer Stem Cells. [Related pubchem assays (depositor defined):AID2717, AID2721]; assay type: functional; conditions: Homo sapiens
[14] = biological target: T1, Rac GTPase-activating protein 1 (Homo sapiens, UniProt Q9H0H5); experiment: blockers of MgcRacGAP-driven Rac1 GTP hydrolysis – biochemical, ADP Hunter fluorescence, primary and confirmatory, confirmation (AID 624330); assay type: functional
T1 sequence (Q9H0H5 whole entry): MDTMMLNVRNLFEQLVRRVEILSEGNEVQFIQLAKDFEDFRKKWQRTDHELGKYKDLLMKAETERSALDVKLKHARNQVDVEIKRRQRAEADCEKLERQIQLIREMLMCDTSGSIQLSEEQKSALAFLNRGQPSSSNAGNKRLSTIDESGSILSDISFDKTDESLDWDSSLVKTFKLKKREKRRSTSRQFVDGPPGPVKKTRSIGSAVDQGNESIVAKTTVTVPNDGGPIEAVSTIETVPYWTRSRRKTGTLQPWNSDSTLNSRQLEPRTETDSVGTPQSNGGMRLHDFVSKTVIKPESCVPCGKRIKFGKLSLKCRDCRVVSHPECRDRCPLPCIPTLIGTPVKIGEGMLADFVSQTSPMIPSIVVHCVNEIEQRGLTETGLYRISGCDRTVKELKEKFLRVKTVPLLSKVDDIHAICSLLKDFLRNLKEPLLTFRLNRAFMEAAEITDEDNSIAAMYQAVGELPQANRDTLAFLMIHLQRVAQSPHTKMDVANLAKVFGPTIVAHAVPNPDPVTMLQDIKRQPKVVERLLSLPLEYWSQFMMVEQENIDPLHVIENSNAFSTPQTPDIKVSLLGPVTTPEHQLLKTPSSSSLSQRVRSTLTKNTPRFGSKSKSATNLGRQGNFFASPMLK

[15] = biological target: Cytochrome P450 3A4 (Homo sapiens, UniProt P08684);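 also: CYP3A4 tested as one member of a cytochrome P450 panel screen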
[16] = biological target: Cytochrome P450 2D6 (Homo sapiens, UniProt P10635);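 also: CYP2D6 member of a cytochrome P450 panel assay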
[17] = biological target: Cytochrome P450 2C19 (Homo sapiens, UniProt P33261); experiment: Cytochrome panel assay with activity outcomes. Panel member name: p450-cyp2c19 Compounds with AC50 equal or less than 10 uM are considered active; assay type: functional; conditions: read-out: AC50
[18] = biological target: T2, Cytochrome P450 1A2 (Homo sapiens, UniProt P05177);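 also: PubChem cytochrome P450 panel assay, CYP1A2 panel member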
T2 sequence (P05177 whole entry): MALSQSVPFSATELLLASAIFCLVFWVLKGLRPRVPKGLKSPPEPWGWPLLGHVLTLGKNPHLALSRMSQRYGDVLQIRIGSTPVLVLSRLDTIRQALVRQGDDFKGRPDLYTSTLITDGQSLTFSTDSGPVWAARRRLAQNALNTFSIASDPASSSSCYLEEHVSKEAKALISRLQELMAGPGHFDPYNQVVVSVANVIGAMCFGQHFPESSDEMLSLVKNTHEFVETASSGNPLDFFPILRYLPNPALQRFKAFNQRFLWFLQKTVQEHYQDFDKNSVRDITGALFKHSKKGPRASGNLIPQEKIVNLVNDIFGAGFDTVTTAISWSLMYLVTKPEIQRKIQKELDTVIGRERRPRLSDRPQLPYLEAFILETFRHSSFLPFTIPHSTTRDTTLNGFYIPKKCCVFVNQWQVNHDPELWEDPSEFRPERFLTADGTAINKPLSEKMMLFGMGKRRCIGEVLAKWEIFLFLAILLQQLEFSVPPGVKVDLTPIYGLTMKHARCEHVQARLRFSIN

[19] = biological target: Cytochrome P450 2C9 (Homo sapiens, UniProt P11712)
[20] = biological target: FAD-linked sulfhydryl oxidase ALR (Homo sapiens, UniProt P55789); experiment: ALR-catalysed DTT oxidation blockers – biochemical, H2O2 detection, luminescence, cherry-pick, dose response (AID 493248)
FAD-linked sulfhydryl oxidase ALR, sequence (P55789 whole entry): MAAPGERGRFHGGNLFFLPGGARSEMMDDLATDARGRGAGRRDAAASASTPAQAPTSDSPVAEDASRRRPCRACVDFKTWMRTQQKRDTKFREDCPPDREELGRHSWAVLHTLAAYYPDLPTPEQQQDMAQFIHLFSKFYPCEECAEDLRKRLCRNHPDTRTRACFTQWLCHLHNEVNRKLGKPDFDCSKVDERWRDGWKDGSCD

Cytochrome P450 2C9, sequence (P11712 whole entry): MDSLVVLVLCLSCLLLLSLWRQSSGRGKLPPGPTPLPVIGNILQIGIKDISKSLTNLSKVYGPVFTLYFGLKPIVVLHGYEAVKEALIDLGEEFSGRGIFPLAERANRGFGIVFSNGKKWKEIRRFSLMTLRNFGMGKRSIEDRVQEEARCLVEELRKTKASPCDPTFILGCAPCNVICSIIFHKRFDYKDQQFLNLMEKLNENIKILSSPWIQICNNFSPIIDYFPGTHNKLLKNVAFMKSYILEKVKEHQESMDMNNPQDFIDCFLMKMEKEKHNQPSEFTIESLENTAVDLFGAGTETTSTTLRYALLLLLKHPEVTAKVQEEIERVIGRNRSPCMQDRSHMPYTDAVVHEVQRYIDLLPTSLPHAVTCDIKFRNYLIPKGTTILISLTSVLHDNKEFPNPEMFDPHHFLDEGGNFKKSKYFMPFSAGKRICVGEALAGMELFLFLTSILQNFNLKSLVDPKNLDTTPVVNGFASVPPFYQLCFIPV
Cytochrome P450 3A4, sequence (P08684 whole entry): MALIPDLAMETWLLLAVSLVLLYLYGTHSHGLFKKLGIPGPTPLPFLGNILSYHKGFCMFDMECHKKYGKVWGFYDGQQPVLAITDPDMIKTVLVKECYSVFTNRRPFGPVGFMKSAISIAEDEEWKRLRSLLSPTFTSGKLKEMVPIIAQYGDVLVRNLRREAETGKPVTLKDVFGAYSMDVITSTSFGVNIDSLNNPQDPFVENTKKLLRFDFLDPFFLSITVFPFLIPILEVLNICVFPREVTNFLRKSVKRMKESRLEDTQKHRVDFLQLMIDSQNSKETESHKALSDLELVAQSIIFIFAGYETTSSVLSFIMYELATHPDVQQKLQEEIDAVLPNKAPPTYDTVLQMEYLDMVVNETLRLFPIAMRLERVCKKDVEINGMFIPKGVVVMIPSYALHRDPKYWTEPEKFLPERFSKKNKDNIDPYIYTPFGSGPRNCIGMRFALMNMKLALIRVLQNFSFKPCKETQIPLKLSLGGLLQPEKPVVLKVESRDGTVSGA
Cytochrome P450 2D6, sequence (P10635 whole entry): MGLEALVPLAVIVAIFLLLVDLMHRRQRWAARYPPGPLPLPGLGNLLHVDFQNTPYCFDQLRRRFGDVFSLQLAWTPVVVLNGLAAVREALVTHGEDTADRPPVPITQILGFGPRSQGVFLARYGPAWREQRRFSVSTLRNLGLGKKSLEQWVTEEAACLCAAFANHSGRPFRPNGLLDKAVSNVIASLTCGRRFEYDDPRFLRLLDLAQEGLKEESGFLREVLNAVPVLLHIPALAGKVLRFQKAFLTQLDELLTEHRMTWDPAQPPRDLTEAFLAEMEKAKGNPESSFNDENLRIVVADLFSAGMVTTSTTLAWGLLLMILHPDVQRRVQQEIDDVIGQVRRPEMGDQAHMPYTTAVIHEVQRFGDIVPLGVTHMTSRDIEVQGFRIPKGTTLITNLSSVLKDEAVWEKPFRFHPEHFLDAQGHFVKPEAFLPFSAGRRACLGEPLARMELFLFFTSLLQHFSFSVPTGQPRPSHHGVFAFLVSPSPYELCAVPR
Paired box protein Pax-8, sequence (Q06710 whole entry): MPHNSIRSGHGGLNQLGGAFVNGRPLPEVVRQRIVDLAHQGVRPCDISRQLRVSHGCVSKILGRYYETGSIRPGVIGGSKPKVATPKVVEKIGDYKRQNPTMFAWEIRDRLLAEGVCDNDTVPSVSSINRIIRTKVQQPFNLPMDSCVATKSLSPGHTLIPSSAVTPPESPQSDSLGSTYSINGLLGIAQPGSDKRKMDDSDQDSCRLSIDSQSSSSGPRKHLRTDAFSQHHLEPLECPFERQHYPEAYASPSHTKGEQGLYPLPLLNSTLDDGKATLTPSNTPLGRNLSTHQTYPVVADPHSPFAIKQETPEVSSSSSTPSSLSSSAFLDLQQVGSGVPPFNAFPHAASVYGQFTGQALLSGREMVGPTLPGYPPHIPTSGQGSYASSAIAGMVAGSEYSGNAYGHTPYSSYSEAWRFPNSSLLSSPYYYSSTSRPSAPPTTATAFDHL
Cytochrome P450 2C19, sequence (P33261 whole entry): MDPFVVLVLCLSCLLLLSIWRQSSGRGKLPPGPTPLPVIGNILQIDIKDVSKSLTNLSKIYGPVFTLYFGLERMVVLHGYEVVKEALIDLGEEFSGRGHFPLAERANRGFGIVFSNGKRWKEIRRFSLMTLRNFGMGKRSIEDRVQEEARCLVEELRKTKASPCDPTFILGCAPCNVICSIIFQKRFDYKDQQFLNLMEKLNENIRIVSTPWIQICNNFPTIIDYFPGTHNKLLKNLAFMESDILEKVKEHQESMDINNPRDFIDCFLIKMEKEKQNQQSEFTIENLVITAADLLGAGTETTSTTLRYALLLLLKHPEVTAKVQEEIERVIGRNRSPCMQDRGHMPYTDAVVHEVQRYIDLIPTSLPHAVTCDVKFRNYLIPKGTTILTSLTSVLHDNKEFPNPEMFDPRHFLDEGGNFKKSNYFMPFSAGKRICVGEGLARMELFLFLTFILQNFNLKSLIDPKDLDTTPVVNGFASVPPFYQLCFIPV

CCc1ccc(N2CC(C(=O)N/N=C/c3cc([N+](=O)[O-])ccc3O)CC2=O)cc1 (configuration not stated)
EC50 [1]: 23.1 µM (active) | EC50 [2]: > 38 µM (not active)

C=CCC1(CC=C)CCCN1C(=O)C1CCC(=O)N(CCc2ccc(OC)cc2)C1 (configuration not stated)
EC50 [3]: 10.4 µM (active) | EC50 [4]: 96 µM (active) | EC50 [5]: 6.13 µM (active)

N#Cc1ccc(OCC(O)CN2CCN(c3ncc(C(F)(F)F)cc3Cl)CC2)cc1 (configuration not stated)
CC50 [6]: > 40 µM (active)

CN(C)c1ccc2c(c1)[C@@H]1C[C@@H](CC(=O)N3CCc4ccccc4C3)O[C@@H](CO)[C@@H]1O2
AC50 [7]: 9.12 µM (active)

Oc1ccc(Cl)cc1C1=NNC(c2cc(Br)cc3c2OCOC3)C1 (configuration not stated)
EC50 [1]: > 160 µM (inactive) | EC50 [2]: > 38 µM (not active)

CCCN(C)C[C@H]1OCCCC[C@@H](C)Oc2ccc(NC(=O)c3ccccc3)cc2C(=O)N([C@H](C)CO)C[C@H]1C
AC50 [8]: 69.5 µM (active)

CN1C[C@H]2[C@@H](c3ccccc31)[C@H](CO)N2Cc1ccccc1F
AC50 [7]: 8.06 µM (active)

NC(=O)CC(NC(=O)c1ccccc1)c1ccc(N2CCC(Cc3ccccc3)CC2)c([N+](=O)[O-])c1 (configuration not stated)
AC50 [9]: 2.74 µM (active) | AC50 [10]: 2.61 µM (active) | AC50 [11]: 4.2 µM (active)

OCC1OC(n2cnc3c(O)nnnc32)C(O)C1O (configuration not stated)
AC50 [8]: 0.785 µM (active)

N#Cc1ccc(-c2ccc(OCC3CNC(=O)O3)cc2)cc1 (configuration not stated)
EC50 [3]: 36.9 µM (active) | EC50 [4]: 11.3 µM (active) | EC50 [5]: 0.187 µM (active)

Cc1nc(NC(=O)CC(C)C)sc1-c1csc(Nc2ccc(Cl)cc2Cl)n1
CC50 [12]: 22.9 µM (active) | AC50 [13]: 1.85 µM (active) | CC50 [6]: > 40 µM (active)

COc1cccc(C(=O)Nc2cc3c(cc2N2CCCC2)n(C)c(=O)n3C)c1
IC50 [14]: 156 µM (active)

Nc1ccc2ccc(O)cc2c1
IC50 [14]: 36.7 µM (active)

CC(C)c1ccc(NC(=O)C(c2ccccc2)N2CCN(C=O)CC2)cc1 (configuration not stated)
AC50 [15]: 11.2 µM (inconclusive) | AC50 [16]: 14.1 µM (inconclusive) | AC50 [17]: 28.2 µM (inconclusive) | AC50 [18]: 31.6 µM (inconclusive) | AC50 [19]: 14.1 µM (inconclusive)

COc1ccc(-n2c(=O)c(-c3ccc(Cl)cc3)nc3cnc(N4CCNCC4)nc32)cc1
AC50 [18]: 12.6 µM (inconclusive)

OCCn1cnc2c(SCc3ccccc3)ncnc21
AC50 [18]: 3.16 µM (inconclusive)

CCc1ccc(CCN2CCCCC2)nc1
AC50 [18]: 5.01 µM (inconclusive)

O=C(Nc1ccccc1)c1cc(-n2cnnc2)ccc1Cl
AC50 [18]: 12.6 µM (inconclusive) | AC50 [19]: 25.1 µM (inconclusive)

COc1ccc(-c2cc(-c3cc(F)ccc3O)[nH]n2)cc1OC
EC50 [1]: > 150 µM (inactive) | AC50 [16]: 28.2 µM (inconclusive) | AC50 [19]: 39.8 µM (inconclusive)

CO[C@H]1CN(C)C(=O)c2cc(NC(=O)c3ccc(F)cc3)ccc2OC[C@H](C)N(C(=O)c2ccc(F)cc2)C[C@H]1C
AC50 [7]: 6.03 µM (active)

COc1cc(C2CC(=O)Nc3[nH]nc(-c4ccccc4)c32)cc(OC)c1OC (configuration not stated)
EC50 [3]: > 120 µM (not active) | EC50 [4]: > 120 µM (not active) | EC50 [5]: > 120 µM (not active)

Cc1c([N+](=O)[O-])c(C(=O)Nc2ccc3c(c2)OCCO3)nn1C
EC50 [3]: 11 µM (active) | EC50 [4]: 9.3 µM (active) | EC50 [5]: 17.1 µM (active)

CC(C)c1ccc(N(C(=O)c2ccco2)C(C(=O)NC2CCCC2)c2ccncc2)cc1 (configuration not stated)
EC50 [3]: 50.3 µM (active) | EC50 [4]: > 120 µM (not active) | EC50 [5]: 22.1 µM (active)

O=C(/C=C/c1ccccc1)NNc1ccc(Cl)cc1
EC50 [1]: 28.1 µM (inconclusive) | AC50 [13]: 5.85 µM (active) | EC50 [2]: 2.71 µM (active)

CC1CCCCN1Cc1cccnc1 (configuration not stated)
IC50 [14]: 109 µM (active)

CC(=O)N1CCN(c2ccc(NCc3ccco3)cc2)CC1
IC50 [14]: 14.6 µM (active)

Nc1cccc(/C=C/c2ccncc2)c1
AC50 [20]: 0.59 µM (active)

CC(C)=CCNc1ncnc2nc[nH]c12
AC50 [18]: 6.31 µM (inconclusive)

O=C(c1ccccc1)N1CC[C@@H]2[C@@H](CO)Nc3ccc(-c4ccc(F)cc4)cc3[C@@H]21
AC50 [7]: 5.45 µM (active)

CCN(CC)CC(=O)NN(Cc1ccccc1)c1ccccc1
IC50 [14]: 108 µM (active)

O=C(OC1CCN(CCCl)CC1)C(c1ccccc1)c1ccccc1
AC50 [15]: 10 µM (inconclusive) | AC50 [16]: 31.6 µM (inconclusive) | AC50 [18]: 12.6 µM (inconclusive)

Cc1nc(-c2nc(-c3c(C(=O)NNC(=O)c4ccc(Cl)cc4)noc3C)cs2)cs1
CC50 [6]: > 40 µM (active)

CCOC(=O)Cc1csc(NC(=S)NC(=O)c2ccc(F)cc2)n1
AC50 [15]: 17.8 µM (inconclusive) | AC50 [18]: 1.12 µM (inconclusive) | AC50 [19]: 1.26 µM (inconclusive)

CCc1ccc(CNC(=O)c2cc3c(C)nc4ccccc4c3o2)cc1
AC50 [9]: > 70 µM (inactive) | AC50 [10]: 2.02 µM (active) | AC50 [11]: 7.78 µM (active)

C[C@H]1CN([C@@H](C)CO)S(=O)(=O)c2ccc(C#Cc3ccccc3)cc2O[C@@H]1CN(C)C(=O)C1CC1
AC50 [7]: 5.43 µM (active)

O=C(CCN1CCN(C(c2ccccc2)c2ccccc2)CC1)N/N=C/c1ccc(O)cc1
IC50 [14]: 88.2 µM (active) | AC50 [20]: 1.6 µM (active)

Cc1cccc(NC(=O)c2nc[nH]c2C(=O)N[C@H](C)c2ccccc2)c1
AC50 [13]: 6.42 µM (active) | CC50 [6]: 36.9 µM (active)

CCOCCCNCC(=O)NCC1CCCCC1
IC50 [14]: 141 µM (active)

CCOc1ccc2nc(N=C(N)N=C(S)Nc3cccc(C)c3)nc(C)c2c1
CC50 [6]: > 40 µM (active)

C[N+](C)(C)/N=C\c1ccc(O)c(O)c1
AC50 [16]: 2 µM (inconclusive) | AC50 [18]: 10 µM (inconclusive)

O=C(C1CC1)N1CCN=C1SCc1ccccc1Cl
AC50 [20]: 2.29 µM (active)

O=C(NCc1ccco1)c1cc(C(=O)C2CC2)c[nH]1
AC50 [18]: 0.2 µM (inconclusive) | AC50 [19]: 39.8 µM (inconclusive)

O=C(NCc1cccnc1)c1ccc(COc2ccccc2Cl)cc1
AC50 [20]: 0.055 µM (active)

NC(=S)n1[nH]c(-c2ccccc2)c(N=Nc2ccccc2C(=O)N2CCOCC2)c1=O
EC50 [1]: > 150 µM (inactive) | EC50 [2]: 7.72 µM (active)

O=C(Nc1cccc(F)c1)c1ccc2ncsc2c1
EC50 [1]: > 150 µM (inactive) | EC50 [2]: 3.17 µM (active)

COC(=O)c1cn(CC(=O)NC2CCCCC2)c2ccccc12
EC50 [1]: > 150 µM (inactive) | EC50 [2]: > 38 µM (not active)

CCc1nn(C)c(-c2nnc(S)n2N)c1Cl
AC50 [19]: 28.2 µM (inconclusive) | AC50 [20]: 0.673 µM (active)

COc1ccccc1CNC(=O)C[C@H]1C[C@@H]2c3cc(NC(=O)Nc4ccc(C(F)(F)F)cc4)ccc3O[C@@H]2[C@@H](CO)O1
AC50 [7]: 8.47 µM (active)
